Reference: patent publication US7153869B2, “Substituted amino acids as erythropoietin mimetics” (priority 1998, dated 2006)
Where two headings read alike, the source gives them in different places.

Molecular target: T1, EBP-Ig (N-terminal 225 amino acids of the human EPO receptor joined to an Ig heavy chain) (Homo sapiens, UniProt P19235)
T1 construct: Ig heavy chain (fusion partner); made in house; host or cells: NSO cells (secreted into conditioned media)
T1 sequence (P19235 25-250 limits assumed): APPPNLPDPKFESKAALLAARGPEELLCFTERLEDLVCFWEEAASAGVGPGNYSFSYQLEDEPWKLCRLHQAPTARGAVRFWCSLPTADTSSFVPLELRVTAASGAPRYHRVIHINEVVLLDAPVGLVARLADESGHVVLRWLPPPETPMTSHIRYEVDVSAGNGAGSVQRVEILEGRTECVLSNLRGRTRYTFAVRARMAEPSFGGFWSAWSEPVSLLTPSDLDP
Test: Inhibition of [125I]EPO binding to immobilized EBP-Ig (EPO binding protein-Ig), scintillation Flash plate competition assay
Settings: for IC30 μM (Inhibition of EPO binding to EBP-Ig): 0–500 μM test compound; for % inh @ 50 μM (Inhibition of EPO binding to EBP-Ig): 50 μM test compound, average % inhibition
Description: The interaction of biotin and streptavidin is frequently employed to capture and effectively immobilize reagents useful in assay protocols and has been employed here as a simple method to capture and immobilize EBP-Ig. EBP-Ig is initially randomly modified with an amine reactive derivative of biotin to produce biotinylated-EBP-Ig. Use of streptavidin coated plates allows the capture of the biotinylated EBP-Ig on the surface of a scintillant impregnated coated well (Flash plates, NEN-DuPont). […] The amount of light produced was quantified to estimate the amount of ligand binding. The specific assay format was suitable for the multi-well plate capacity of a Packard TopCount Microplate Scintillation counter.
Biotinylated EBP-Ig was prepared as follows. EBP-Ig (3 mL, OD280 2.9) was exchanged into 50 mM sodium bicarbonate, pH 8.5 using a Centriprep 10 ultrafiltration device. The final volume of the exchanged protein was 1.2 mL (OD280 2.6, representing about 2 mg total protein). 10 μL of a 4 mg/ml solution of NHS-LC-Biotin (Pierce) was added and the reaction mixture placed on ice in the dark for two hours. Unreacted biotin was removed by exchange of the reaction buffer into PBS in a Centriprep 10 device and the protein reagent aliquoted and stored at −70° C.
All wells were adjusted to a final DMSO concentration of 5%. […] After all additions were made, the plate was covered with an adhesive top seal and placed in the dark at room temperature overnight. The next day all liquid was aspirated from the wells to limit analyte dependent quench of the signal, and the plates were counted on a Packard TOPCOUNT Microplate Scintillation Counter. […] Corrected total binding (CTB) was calculated as: TB−NSB=CTB. […] Table 1 lists the average % inhibition, and if determined the IC50 and IC30 values for compounds of Formula I, where the compound numbers refer to the compounds in the tables accompanying the preparative examples.

[1] = read-out: % inh @ 50 μM (Inhibition of EPO binding to EBP-Ig)
[2] = read-out: IC50, μM (Inhibition of EPO binding to EBP-Ig), 0.5 nM [125I]EPO, concentration reducing corrected total binding to 50%

## CC(C)(C)c1ccc(Oc2cccc(/C=C/C(=O)N(Cc3cccc(Oc4ccccc4)c3)C(CCCCN)C(=O)O)c2)cc1 (centres unmarked) [compound 288]
50 μM compound, Table 15
  EPO/EBP-Ig % inh @ 50 μM: 27%

## Cc1ccc(S(=O)(=O)Nc2cccc(CN(Cc3cccc(Oc4ccccc4)c3)C(CCC(=O)O)C(=O)NCCOCCOCCNC(=O)C(CCC(=O)O)N(Cc3cccc(NS(=O)(=O)c4ccc(C)cc4)c3)Cc3cccc(Oc4ccccc4)c3)c2)cc1 (centres unmarked) [compound 250]
  IC50: 20 µM
0.5 nM [125I]EPO
  IC30 μM (Inhibition of EPO binding to EBP-Ig): 7 µM
[1]
  inhibition at 50 µM: 78%
read-out: EPO/EBP-Ig % inh @ 50 μM, Table 11, 50 μM
  inhibition at 50 µM: 78%

## O=C(O)[C@H](CO)N(C/C=C/c1cccc(Oc2ccccc2)c1)C/C=C/c1cccc(Oc2ccccc2)c1 [cpd 300, N,N-Bis(3-phenoxycinnamyl)Ser-OH]
  IC50: 145 µM
0.5 nM [125I]EPO
  IC30 μM (Inhibition of EPO binding to EBP-Ig): 35 µM
[1]
  inhibition at 50 µM: 57%
read-out: EPO/EBP-Ig % inh @ 50 μM, 50 μM compound, Table 16A
  inhibition at 50 µM: 57%

## CC(C)(C)OC(=O)CCC(C(=O)NCCOCCOCCNC(=O)C(CCC(=O)OC(C)(C)C)N(Cc1ccc(OCc2ccccc2)cc1)Cc1ccc(OCc2ccccc2)cc1)N(Cc1ccc(OCc2ccccc2)cc1)Cc1ccc(OCc2ccccc2)cc1 (centres unmarked) [cpd 245, [N,N-bis(4-Benzyloxybenzyl)Glu(O-t-Bu)-NHCH2CH2OCH2]2]
Table 11, 50 μM
  EPO/EBP-Ig % inh @ 50 μM: 0%

## CC(C)(C)OC(=O)CC(C(=O)NCCCCCCCCCCCCNC(=O)C(CC(=O)OC(C)(C)C)N(C/C=C/c1cccc(Oc2ccc(C(C)(C)C)cc2)c1)C/C=C/c1cccc(Oc2ccc(C(C)(C)C)cc2)c1)N(C/C=C/c1cccc(Oc2ccc(C(C)(C)C)cc2)c1)C/C=C/c1cccc(Oc2ccc(C(C)(C)C)cc2)c1 (centres unmarked) [compound 255]
50 μM compound, Table 12
  EPO/EBP-Ig % inh @ 50 μM: 0%

## CC(C)[C@H](NC/C=C/c1ccc(C(F)(F)F)cc1)C(=O)O.O=C(O)C(F)(F)F [compound 370]
50 μM compound
  EPO/EBP-Ig % inh @ 50 μM: 0%

## CSCC[C@H](NC/C=C/c1ccc(C(F)(F)F)cc1)C(=O)O.O=C(O)C(F)(F)F [compound 365]
50 μM compound
  EPO/EBP-Ig % inh @ 50 μM: 0%

## CC(=O)O.COC(=O)[C@H](CO)N(C/C=C/c1cccc(Oc2cccc(C(F)(F)F)c2)c1)C/C=C/c1cccc(Oc2cccc(C(F)(F)F)c2)c1 [compound 297]
50 μM compound, Table 16A
  EPO/EBP-Ig % inh @ 50 μM: 0%

## CC(C)C[C@H](NC/C=C/c1ccc(C(F)(F)F)cc1)C(=O)O.O=C(O)C(F)(F)F [compound 369]
50 μM compound
  EPO/EBP-Ig % inh @ 50 μM: 12%

## COc1ccc(CCNC(=O)C(CCCCN)N(C/C=C/c2ccccc2)C/C=C/c2ccccc2)cc1OC (centres unmarked) [compound 221]
0.5 nM [125I]EPO
  IC30 μM (Inhibition of EPO binding to EBP-Ig): 10 µM
  % inh @ 50 μM (Inhibition of EPO binding to EBP-Ig): 48%
50 μM compound, Table 10
  EPO/EBP-Ig % inh @ 50 μM: 48%
[2]
  IC50: 80 µM

## Cc1ccc(S(=O)(=O)Nc2cccc(CN(Cc3cccc(NS(=O)(=O)c4ccc(C)cc4)c3)C(CC(=O)O)C(=O)O)c2)cc1 (centres unmarked) [compound 65]
Table 4, 50 μM
  EPO/EBP-Ig % inh @ 50 μM: −7%

## O=C(O)CCCC(=O)NCCCCC(C(=O)NCCCOCCOCCOCCCNC(=O)C(CCCCNC(=O)CCCC(=O)O)N(Cc1ccc(OCc2ccccc2)cc1)Cc1ccc(OCc2ccccc2)cc1)N(Cc1ccc(OCc2ccccc2)cc1)Cc1ccc(OCc2ccccc2)cc1 (centres unmarked) [compound 272]
0.5 nM [125I]EPO
  IC30 μM (Inhibition of EPO binding to EBP-Ig): 5 µM
[2]
  IC50: 10 µM

## Cc1ccc(C(=O)Nc2cccc(CN(Cc3cccc(Oc4ccccc4)c3)C(CCC(=O)O)C(=O)NCCOCCOCCNC(=O)C(CCC(=O)O)N(Cc3cccc(NC(=O)c4ccc(C)cc4)c3)Cc3cccc(Oc4ccccc4)c3)c2)cc1 (centres unmarked) [compound 249]
0.5 nM [125I]EPO
  IC30 μM (Inhibition of EPO binding to EBP-Ig): 7 µM
  % inh @ 50 μM (Inhibition of EPO binding to EBP-Ig): 72%
Table 11, 50 μM
  EPO/EBP-Ig % inh @ 50 μM: 72%
[2]
  IC50: 10 µM

## COC(=O)C(CCCCN)N(Cc1ccc(OCc2ccccc2)cc1)Cc1cccc(N)c1 (centres unmarked) [compound 115]
[1]
  inhibition at 50 µM: 35%
read-out: EPO/EBP-Ig % inh @ 50 μM, Table 7, 50 μM
  inhibition at 50 µM: 35%

## CC(C)(CC(=O)O)CC(=O)NCCCCC(C(=O)NCCCCCCCCCCCCNC(=O)C(CCCCNC(=O)CC(C)(C)CC(=O)O)N(Cc1ccc(OCc2ccccc2)cc1)Cc1ccc(OCc2ccccc2)cc1)N(Cc1ccc(OCc2ccccc2)cc1)Cc1ccc(OCc2ccccc2)cc1 (centres unmarked) [compound 268]
50 μM compound, Table 13
  EPO/EBP-Ig % inh @ 50 μM: 40%
0.5 nM [125I]EPO
  % inh @ 50 μM (Inhibition of EPO binding to EBP-Ig): 40%

## COC(=O)C(CCC(=O)OC(C)(C)C)N(CC=Cc1cccs1)CC=Cc1cccs1 (centres unmarked) [compound 59]
Table 3, 50 μM
  EPO/EBP-Ig % inh @ 50 μM: 26%

## O=C(O)CCC(C(=O)O)N(C/C=C/c1ccc(NC(=O)C(F)(F)C(F)(F)F)cc1)Cc1ccc(OCc2ccccc2)cc1 (centres unmarked) [compound 84]
Table 5, 50 μM
  EPO/EBP-Ig % inh @ 50 μM: 14%

## CC(C)(C)OC(=O)NCCCCC(C(=O)NCCOCCOCCNC(=O)C(CCCCNC(=O)OC(C)(C)C)N(Cc1ccc(OCc2ccccc2)cc1)Cc1ccc(OCc2ccccc2)cc1)N(Cc1ccc(OCc2ccccc2)cc1)Cc1ccc(OCc2ccccc2)cc1 (centres unmarked) [compound 260]
50 μM compound, Table 13
  EPO/EBP-Ig % inh @ 50 μM: −12%

## O=C(O)C(F)(F)F.O=C(O)[C@H](CO)NC/C=C/c1cccc(Oc2cccc(C(F)(F)F)c2)c1 [compound 350]
50 μM compound, Table 20A
  EPO/EBP-Ig % inh @ 50 μM: 23%

## O=C(O)CCC(C(=O)NCCOCCOCCNC(=O)C(CCC(=O)O)N(CC=Cc1ccccc1)CC=Cc1ccccc1)N(CC=Cc1ccccc1)CC=Cc1ccccc1 (centres unmarked) [compound 251]
0.5 nM [125I]EPO
  IC30 μM (Inhibition of EPO binding to EBP-Ig): 10 µM
  % inh @ 50 μM (Inhibition of EPO binding to EBP-Ig): 49%
50 μM compound, Table 12
  EPO/EBP-Ig % inh @ 50 μM: 49%
[2]
  IC50: 45 µM

## O=C(O)C(CO)NCC=Cc1cccc(Oc2ccccc2)c1 (centres unmarked) [cpd 347, N-(3-phenoxycinnamyl)Ser-OH]
50 μM compound, Table 20A
  EPO/EBP-Ig % inh @ 50 μM: 23%

## COC(=O)[C@H](COC(C)(C)C)NC/C=C/c1ccc(-c2ccccc2)cc1 [compound 353]
50 μM compound, Table 20A
  EPO/EBP-Ig % inh @ 50 μM: 24%

## CC(C)(C)OC(=O)CCC(C(=O)OC(C)(C)C)N(C/C=C/c1cccc(Oc2cccc(C(F)(F)F)c2)c1)C/C=C/c1cccc(Oc2cccc(C(F)(F)F)c2)c1 (centres unmarked) [compound 103]
Table 6, 50 μM
  EPO/EBP-Ig % inh @ 50 μM: 17%

## COC(=O)[C@H](COC(C)(C)C)N(C/C=C/c1cccc(Oc2cccc(C(F)(F)F)c2)c1)C/C=C/c1cccc(Oc2cccc(C(F)(F)F)c2)c1 [compound 292]
50 μM compound, Table 16A
  EPO/EBP-Ig % inh @ 50 μM: 11%

## Cc1ccccc1CNc1cccc(CN(Cc2cccc(Oc3ccccc3)c2)C(CC(=O)O)C(=O)O)c1 (centres unmarked) [compound 69]
Table 4, 50 μM
  EPO/EBP-Ig % inh @ 50 μM: −13%

## COc1ccc(CCNC(=O)C(CCCCNC(=O)Nc2ccc(Oc3ccccc3)cc2)N(C/C=C/c2cccc(Oc3ccccc3)c2)C/C=C/c2cccc(Oc3ccccc3)c2)cc1 (centres unmarked) [compound 232]
50 μM compound, Table 10
  EPO/EBP-Ig % inh @ 50 μM: 14%

## CC(=O)O.COC(=O)[C@H](CO)N(C/C=C/c1ccc(-c2ccccc2)cc1)C/C=C/c1ccc(-c2ccccc2)cc1 [compound 295]
50 μM compound, Table 16A
  EPO/EBP-Ig % inh @ 50 μM: 10%

## Cc1ccc(Oc2cccc(CN(Cc3cccc(NCc4cccc(Cl)c4)c3)C(CC(=O)O)C(=O)O)c2)cc1 (centres unmarked) [compound 71]
Table 4, 50 μM
  EPO/EBP-Ig % inh @ 50 μM: −6%

## O=C(O)C(F)(F)F.O=C(O)CC[C@H](NC/C=C/c1cccc(Oc2ccc(Cl)c(Cl)c2)c1)C(=O)O [compound 332]
50 μM compound, Table 19A
  EPO/EBP-Ig % inh @ 50 μM: 17%

## COC(=O)C(CCCCNC(=O)OC(C)(C)C)N(Cc1ccc(OCc2ccccc2)cc1)Cc1ccc(OCc2ccccc2)cc1 (centres unmarked) [cpd 111, N,N-bis(4-Benzyloxybenzyl)Lys(Boc)-OMe]
Table 7, 50 μM
  EPO/EBP-Ig % inh @ 50 μM: 5%

## O=C(O)C(F)(F)F.O=C(O)[C@H](CO)NC/C=C/c1ccc(-c2ccccc2)cc1 [compound 348]
50 μM compound, Table 20A
  EPO/EBP-Ig % inh @ 50 μM: 21%

## O=C(O)CCC(C(=O)O)N(C/C=C/c1cccc(Oc2cccc(C(F)(F)F)c2)c1)C/C=C/c1cccc(Oc2cccc(C(F)(F)F)c2)c1 (centres unmarked) [compound 105]
  IC50: 35 µM
0.5 nM [125I]EPO
  IC30 μM (Inhibition of EPO binding to EBP-Ig): 25 µM
[1]
  inhibition at 50 µM: 70%
read-out: EPO/EBP-Ig % inh @ 50 μM, Table 6, 50 μM
  inhibition at 50 µM: 70%

## CC(C)(C)OC(=O)CC(C(=O)NCCCOCCOCCOCCCNC(=O)C(CC(=O)OC(C)(C)C)N(Cc1ccc(OCc2ccccc2)cc1)Cc1ccc(OCc2ccccc2)cc1)N(Cc1ccc(OCc2ccccc2)cc1)Cc1ccc(OCc2ccccc2)cc1 (centres unmarked) [compound 242]
Table 11, 50 μM
  EPO/EBP-Ig % inh @ 50 μM: 1%

## O=C(O)CCCC(=O)NCCCCC(C(=O)NCCCCCCCCCCCCNC(=O)C(CCCCNC(=O)CCCC(=O)O)N(Cc1ccc(OCc2ccccc2)cc1)Cc1ccc(OCc2ccccc2)cc1)N(Cc1ccc(OCc2ccccc2)cc1)Cc1ccc(OCc2ccccc2)cc1 (centres unmarked) [compound 269]
0.5 nM [125I]EPO
  IC30 μM (Inhibition of EPO binding to EBP-Ig): 8 µM
[2]
  IC50: 85 µM
